Measurements: publication PMC8594528 (Proceedings of the National Academy of Sciences of the …, 2021)

What was measured:
GSK-3β [1] = biological target: T1, GSK-3β (Homo sapiens, UniProt P49841); experiment: in vitro kinase assay with recombinant GSK-3β and immunoprecipitated N protein as substrate, single concentration ([…]); format: biochemical
T1 construct: gene GSK3B; human recombinant GSK-3β

GSK-3β [2] = biological target: T1, GSK-3β; experiment: in vitro kinase assay with recombinant GSK-3β; tau or immunoprecipitated N protein as substrate, gel mobility shift; format: biochemical

T1 sequence (P49841 whole entry): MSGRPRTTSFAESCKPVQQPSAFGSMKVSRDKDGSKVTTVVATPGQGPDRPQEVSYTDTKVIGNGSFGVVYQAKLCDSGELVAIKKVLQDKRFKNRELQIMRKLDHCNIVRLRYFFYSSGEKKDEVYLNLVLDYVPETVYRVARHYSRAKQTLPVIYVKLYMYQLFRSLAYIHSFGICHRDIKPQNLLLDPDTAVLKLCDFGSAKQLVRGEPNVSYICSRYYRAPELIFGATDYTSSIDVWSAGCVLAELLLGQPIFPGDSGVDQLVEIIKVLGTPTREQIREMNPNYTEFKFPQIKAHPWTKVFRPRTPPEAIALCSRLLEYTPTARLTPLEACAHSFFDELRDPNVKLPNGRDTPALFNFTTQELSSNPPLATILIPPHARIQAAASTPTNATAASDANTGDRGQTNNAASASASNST

| Structure (SMILES) | in vitro kinase assay with recombinant GSK-3β and immunoprecipitated N protein a (GSK-3β [1]) [µM] | in vitro kinase assay with recombinant GSK-3β; tau or immunoprecipitated N prote (GSK-3β [2]) [µM] |
| --- | --- | --- |
| Cc1c[nH]c(-c2cnc(NCCNc3ccc(C#N)cn3)nc2-c2ccc(Cl)cc2Cl)n1 [CHIR99021] | 2 | – |
| Cn1cc(C2=C(c3cn(C4CCN(Cc5ccccn5)CC4)c4ccccc34)C(=O)NC2=O)c2ccccc21 [Enzastaurin] | – | 0.5 |
